pIC50: −log10 of the molar value.

One experiment addresses T1, AXL (Homo sapiens, UniProt P30530).
T1 construct: endogenous in cells; host or cells: A-172 glioblastoma cells (ATCC #CRL-1620)
T1 sequence (P30530 26-894): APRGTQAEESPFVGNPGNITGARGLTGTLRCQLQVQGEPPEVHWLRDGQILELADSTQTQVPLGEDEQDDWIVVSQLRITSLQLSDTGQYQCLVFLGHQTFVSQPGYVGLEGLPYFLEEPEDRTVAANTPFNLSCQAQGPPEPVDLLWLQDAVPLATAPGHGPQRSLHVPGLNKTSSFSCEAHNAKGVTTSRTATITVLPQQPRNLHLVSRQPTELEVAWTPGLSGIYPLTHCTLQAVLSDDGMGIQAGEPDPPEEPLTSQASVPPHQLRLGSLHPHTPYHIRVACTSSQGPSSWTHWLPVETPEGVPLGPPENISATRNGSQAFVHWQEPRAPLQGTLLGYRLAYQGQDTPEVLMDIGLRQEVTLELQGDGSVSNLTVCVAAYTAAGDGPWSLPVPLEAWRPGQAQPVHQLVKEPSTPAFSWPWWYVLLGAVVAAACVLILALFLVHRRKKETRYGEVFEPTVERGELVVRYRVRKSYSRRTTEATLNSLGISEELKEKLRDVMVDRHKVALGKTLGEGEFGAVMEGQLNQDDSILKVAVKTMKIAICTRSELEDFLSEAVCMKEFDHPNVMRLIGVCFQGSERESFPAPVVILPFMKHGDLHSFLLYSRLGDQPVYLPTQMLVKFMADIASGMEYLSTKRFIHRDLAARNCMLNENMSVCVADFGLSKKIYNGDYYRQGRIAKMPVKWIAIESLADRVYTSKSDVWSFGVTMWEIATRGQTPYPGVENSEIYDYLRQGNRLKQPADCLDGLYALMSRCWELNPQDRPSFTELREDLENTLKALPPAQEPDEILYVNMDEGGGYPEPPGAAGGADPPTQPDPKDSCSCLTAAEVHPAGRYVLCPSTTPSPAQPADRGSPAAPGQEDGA
The experiment in a line: AXL autophosphorylation ELISA in A-172 cells. It counts as cell-based. The conditions noted are these: Table 3 Cellular Activities, Gas6-stimulated, phospho-AXL ELISA. Summed up: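 A-172 glioblastoma cells serum-starved 24 h, treated 1 h with compounds (8-point dose curve, 0.3% DMSO), then stimulated with 1 μg/mL Gas6 for 15 min. Lysate phospho-AXL quantified by ELISA against a standard; IC50 from 4-parameter logistic fit, normalised to DMSO and reference-inhibitor controls.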

The next experiment has as its target Met (Homo sapiens, UniProt P08581). Put plainly: Met autophosphorylation ELISA in PC-3 cells. It counts as cell-based. Set-up: endogenous in cells; host or cells: PC-3 prostate cancer cells (ATCC #CRL-1435). The settings on record: Table 3 Cellular Activities, HGF-stimulated, phospho-Met ELISA, read-out: c-Met IC50. In a few lines: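 Serum-starved (3 h) PC-3 cells pre-incubated 1 h with compound (8-point dose curve, 0.3% DMSO), then stimulated with 100 ng/mL recombinant human HGF for 10 min. Lysate phospho-Met (panTyr) measured by sandwich ELISA; IC50 from 4-parameter logistic fit, normalised to DMSO (100%) and reference-inhibitor (0%) controls.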

Met, sequence (P08581 25-1390): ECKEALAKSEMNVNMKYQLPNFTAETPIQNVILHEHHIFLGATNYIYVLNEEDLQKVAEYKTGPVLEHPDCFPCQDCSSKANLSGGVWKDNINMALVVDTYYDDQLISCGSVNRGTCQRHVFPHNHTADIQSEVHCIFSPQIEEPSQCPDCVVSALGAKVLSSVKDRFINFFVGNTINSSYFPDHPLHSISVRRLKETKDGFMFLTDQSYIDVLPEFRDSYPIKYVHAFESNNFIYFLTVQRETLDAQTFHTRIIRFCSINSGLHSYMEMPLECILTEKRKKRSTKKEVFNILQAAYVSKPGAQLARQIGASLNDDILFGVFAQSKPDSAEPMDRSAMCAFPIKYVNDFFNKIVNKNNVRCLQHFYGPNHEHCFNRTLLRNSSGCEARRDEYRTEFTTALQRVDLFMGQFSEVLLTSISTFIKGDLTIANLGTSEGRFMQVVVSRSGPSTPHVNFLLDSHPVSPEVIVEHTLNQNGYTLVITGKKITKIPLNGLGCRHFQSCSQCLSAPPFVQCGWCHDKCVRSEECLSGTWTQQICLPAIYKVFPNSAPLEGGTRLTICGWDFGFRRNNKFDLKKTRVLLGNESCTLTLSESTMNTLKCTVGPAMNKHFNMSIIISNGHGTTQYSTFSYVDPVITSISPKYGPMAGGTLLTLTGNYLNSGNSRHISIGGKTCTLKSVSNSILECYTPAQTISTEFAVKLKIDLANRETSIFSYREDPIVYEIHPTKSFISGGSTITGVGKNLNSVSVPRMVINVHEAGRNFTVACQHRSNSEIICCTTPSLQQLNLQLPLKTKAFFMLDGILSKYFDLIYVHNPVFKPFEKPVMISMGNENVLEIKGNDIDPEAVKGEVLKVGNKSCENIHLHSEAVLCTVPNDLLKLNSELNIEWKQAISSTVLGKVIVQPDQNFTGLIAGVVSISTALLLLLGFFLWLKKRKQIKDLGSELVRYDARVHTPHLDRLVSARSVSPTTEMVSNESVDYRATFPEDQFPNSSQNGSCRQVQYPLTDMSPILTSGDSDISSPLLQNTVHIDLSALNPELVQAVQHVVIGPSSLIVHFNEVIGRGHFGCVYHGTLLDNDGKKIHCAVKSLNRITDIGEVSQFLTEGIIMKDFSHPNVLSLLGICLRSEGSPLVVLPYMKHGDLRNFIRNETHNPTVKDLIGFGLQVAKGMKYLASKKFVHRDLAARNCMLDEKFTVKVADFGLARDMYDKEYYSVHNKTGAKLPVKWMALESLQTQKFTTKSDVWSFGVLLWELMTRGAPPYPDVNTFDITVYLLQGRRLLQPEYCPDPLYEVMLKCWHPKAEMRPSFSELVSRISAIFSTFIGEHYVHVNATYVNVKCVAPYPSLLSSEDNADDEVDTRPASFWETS

In the case of `COc1cnc2c(Oc3ccc(NC(=O)c4cnc(C)c(-c5ccsc5)c4O)cc3F)ccnc2c1` [Compound 98, N-[3-Fluoro-4-[(7-methoxy-1,5-naphthyridin-4-yl)oxy]phenyl]-4-hydroxy-6-methyl-5-(3-thienyl)pyridine-3-carboxamide], the negative logarithm of the IC50 (pIC50) against AXL and at Met was no less than 7.00 in each case.
In the case of `C=CCc1ccc(-c2c(C)ncc(C(=O)Nc3ccc(Oc4ccnc5cc(OC)c(OC)nc45)c(F)c3)c2O)o1` [Compound 155, N-[4-[(6,7-Dimethoxy-1,5-naphthyridin-4-yl)oxy]-3-fluorophenyl]-4-hydroxy-6-methyl-5-(5-prop-2-enylfuran-2-yl)pyridine-3-carboxamide], the negative-log IC50 (pIC50) against AXL and at Met was no less than 7.00 each time.
`COc1cnc2c(Oc3ccc(NC(=O)c4cnc(C)c(-c5ccco5)c4O)cc3F)ccnc2c1` [Compound 96, N-[3-Fluoro-4-[(7-methoxy-1,5-naphthyridin-4-yl)oxy]phenyl]-5-(2-furyl)-4-hydroxy-6-methyl-pyridine-3-carboxamide]: the negative logarithm of the IC50 (pIC50) on AXL and at Met was no less than 7.00 throughout.
Consider `COc1cc2nccc(Oc3ccc(NC(=O)c4cnc(C)c(-c5cccs5)c4O)cc3F)c2nc1OC` [Compound 90, N-[4-[(6,7-Dimethoxy-1,5-naphthyridin-4-yl)oxy]-3-fluoro-phenyl]-4-hydroxy-6-methyl-5-(2-thienyl)pyridine-3-carboxamide], for which the negative logarithm of the IC50 (pIC50) at AXL and at Met was no less than 7.00 throughout.
Regarding `COc1cc2nccc(Oc3ccc(NC(=O)c4c(C)ncc(-c5cccs5)c4O)cc3F)c2nc1OC` [Compound 123, N-[4-[(6,7-Dimethoxy-1,5-naphthyridin-4-yl)oxy]-3-fluorophenyl]-4-hydroxy-2-methyl-5-thiophen-2-ylpyridine-3-carboxamide], the pIC50 against AXL and at Met was no less than 7.00 in each case.
For the compound `COc1cc2nccc(Oc3ccc(NC(=O)c4c(C)nc(C)c(-c5ccoc5)c4O)cc3F)c2nc1OC` [Compound 112, N-[4-[(6,7-Dimethoxy-1,5-naphthyridin-4-yl)oxy]-3-fluoro-phenyl]-5-(3-furyl)-4-hydroxy-2,6-dimethyl-pyridine-3-carboxamide], the pIC50 against AXL and at Met was no less than 7.00 in each case.
In the case of `COc1cc2nccc(Oc3ccc(NC(=O)c4c(C)n(C)c(C)c(-c5ccco5)c4=O)cc3)c2nc1OC` [Compound 164, N-[4-[(6,7-Dimethoxy-1,5-naphthyridin-4-yl)oxy]phenyl]-5-(furan-2-yl)-1,2,6-trimethyl-4-oxopyridine-3-carboxamide], the negative-log IC50 (pIC50) against AXL and at Met was no less than 7.00 each time.
Turning to `COc1cc2nccc(Oc3ccc(NC(=O)c4cnc(C)c(-c5cc(C)cs5)c4O)cc3F)c2nc1OC` [Compound 91, N-[4-[(6,7-Dimethoxy-1,5-naphthyridin-4-yl)oxy]-3-fluoro-phenyl]-4-hydroxy-6-methyl-5-(4-methyl-2-thienyl) pyridine-3-carboxamide], the negative-log IC50 (pIC50) against AXL and on Met was no less than 7.00 in each case.
Regarding `COCc1nc(C)c(-c2cccs2)c(O)c1C(=O)Nc1ccc(Oc2ccnc3cc(OC)c(OC)nc23)c(F)c1` [Compound 115, N-[4-[(6,7-Dimethoxy-1,5-naphthyridin-4-yl)oxy]-3-fluorophenyl]-4-hydroxy-2-(methoxymethyl)-6-methyl-5-thiophen-2-ylpyridine-3-carboxamide], the pIC50 on AXL and on Met was no less than 7.00 each time.
With `COc1cc2nccc(Oc3ccc(NC(=O)c4c(C)ncc(-c5cc(C)cs5)c4O)cc3F)c2nc1OC` [Compound 125, N-[4-[(6,7-Dimethoxy-1,5-naphthyridin-4-yl)oxy]-3-fluorophenyl]-4-hydroxy-2-methyl-5-(4-methylthiophen-2-yl)pyridine-3-carboxamide], the negative-log IC50 (pIC50) against AXL and at Met was no less than 7.00 each time.
On to `COc1cc2nccc(Oc3ccc(NC(=O)c4c(C)nc(C)c(-c5ccco5)c4O)cc3F)c2nc1OC` [Compound 135, N-[4-[(6,7-Dimethoxy-1,5-naphthyridin-4-yl)oxy]-3-fluorophenyl]-5-(furan-2-yl)-4-hydroxy-2,6-dimethylpyridine-3-carboxamide], for which the negative-log IC50 (pIC50) against AXL and on Met was no less than 7.00 in each case.
For the compound `COCc1nc(C)c(-c2ccccn2)c(O)c1C(=O)Nc1ccc(Oc2ccnc3cc(OC)c(OC)nc23)c(F)c1` [Compound 195, N-[4-[(6,7-Dimethoxy-1,5-naphthyridin-4-yl)oxy]-3-fluorophenyl]-4-hydroxy-2-(methoxymethyl)-6-methyl-5-pyridin-2-ylpyridine-3-carboxamide], the pIC50 at AXL and on Met was no less than 7.00 each time.
`COc1cc2nccc(Oc3ccc(NC(=O)c4c(C)n(C)c(C)c(-c5cccs5)c4=O)cc3)c2nc1OC` [Compound 167, N-[4-[(6,7-Dimethoxy-1,5-naphthyridin-4-yl)oxy]phenyl]-1,2,6-trimethyl-4-oxo-5-thiophen-2-ylpyridine-3-carboxamide]: the pIC50 on AXL and at Met was no less than 7.00 in each case.
For `COc1cc2nccc(Oc3ccc(NC(=O)c4cnc(C)c(-c5ccc(C)o5)c4O)cc3F)c2nc1OC` [Compound 92, N-[4-[(6,7-Dimethoxy-1,5-naphthyridin-4-yl)oxy]-3-fluoro-phenyl]-4-hydroxy-6-methyl-5-(5-methyl-2-furyl)pyridine-3-carboxamide], the negative logarithm of the IC50 (pIC50) at AXL and at Met was no less than 7.00 each time.
For `COc1cnc2c(Oc3ccc(NC(=O)c4cnc(C)c(-c5ccco5)c4O)cc3)ccnc2c1` [Compound 129, 5-(Furan-2-yl)-4-hydroxy-N-[4-[(7-methoxy-1,5-naphthyridin-4-yl)oxy]phenyl]-6-methylpyridine-3-carboxamide], the negative-log IC50 (pIC50) at AXL and at Met was no less than 7.00 each time.
With `CCc1ccc(-c2c(C)ncc(C(=O)Nc3ccc(Oc4ccnc5cc(OC)c(OC)nc45)c(F)c3)c2O)o1` [Compound 153, N-[4-[(6,7-Dimethoxy-1,5-naphthyridin-4-yl)oxy]-3-fluorophenyl]-5-(5-ethylfuran-2-yl)-4-hydroxy-6-methylpyridine-3-carboxamide], the pIC50 at AXL was no less than 7.00; at Met, 6.52 to 7.00.
For `COc1cc2nccc(Oc3ccc(NC(=O)c4c(C)nc(C)c(-c5ccc(C)s5)c4O)cc3F)c2nc1OC` [Compound 111, N-[4-[(6,7-Dimethoxy-1,5-naphthyridin-4-yl)oxy]-3-fluoro-phenyl]-4-hydroxy-2,6-dimethyl-5-(5-methyl-2-thienyl)pyridine-3-carboxamide], in that order: no less than 7.00 and no less than 7.00.
For `C=C(C)c1ccc(-c2c(C)ncc(C(=O)Nc3ccc(Oc4ccnc5cc(OC)c(OC)nc45)c(F)c3)c2O)o1` [Compound 152, N-[4-[(6,7-Dimethoxy-1,5-naphthyridin-4-yl)oxy]-3-fluorophenyl]-4-hydroxy-6-methyl-5-(5-prop-1-en-2-ylfuran-2-yl)pyridine-3-carboxamide], the negative logarithm of the IC50 (pIC50) at AXL and at Met was 6.52 to 7.00 each time.
For the compound `COc1cc2nccc(Oc3ccc(NC(=O)c4c(C)ncc(-c5ccc(C)o5)c4O)cc3F)c2nc1OC` [Compound 120, N-[4-[(6,7-Dimethoxy-1,5-naphthyridin-4-yl)oxy]-3-fluorophenyl]-4-hydroxy-2-methyl-5-(5-methylfuran-2-yl)pyridine-3-carboxamide], the negative-log IC50 (pIC50) at AXL and at Met was no less than 7.00 throughout.
Turning to `COc1cc2nccc(Oc3ccc(NC(=O)c4c(C)ncc(-c5ccsc5)c4O)cc3F)c2nc1OC` [Compound 127, N-[4-[(6,7-Dimethoxy-1,5-naphthyridin-4-yl)oxy]-3-fluorophenyl]-4-hydroxy-2-methyl-5-thiophen-3-ylpyridine-3-carboxamide], the pIC50 on AXL and on Met was no less than 7.00 each time.
Turning to `COc1cc2nccc(Oc3cc(F)c(NC(=O)c4c(C)n(C)c(C)c(-c5ccco5)c4=O)cc3F)c2nc1OC` [Compound 163, N-[4-[(6,7-Dimethoxy-1,5-naphthyridin-4-yl)oxy]-2,5-difluorophenyl]-5-(furan-2-yl)-1,2,6-trimethyl-4-oxopyridine-3-carboxamide], the negative logarithm of the IC50 (pIC50) against AXL and at Met was no less than 7.00 throughout.

Source of the values: patent publication US20230151003A1, “COMPOUNDS AND METHODS OF USE” (Exelixis, Inc., priority 2020, published 2023).
